Reference: patent US6528516B1, “Methods for reducing intraocular pressure using A3 adenosine receptor antagonists” (Trustees of the University of Pennsylvania, The Center for …, priority 1998, dated 2003)
Entries after “also recorded” stand apart in the source; their conditions may differ. Like-named read-outs stand apart in the source and are kept apart here.

Key:
[1] = biological target: T1, human A3 receptor (Homo sapiens, UniProt P0DMS8); test: Radioligand binding, [125I]AB-MECA, HEK-293 cell membranes; parameters: host or cells: HEK-293; conditions: read-out: Ki(hA3)
T1 sequence (P0DMS8 1-318): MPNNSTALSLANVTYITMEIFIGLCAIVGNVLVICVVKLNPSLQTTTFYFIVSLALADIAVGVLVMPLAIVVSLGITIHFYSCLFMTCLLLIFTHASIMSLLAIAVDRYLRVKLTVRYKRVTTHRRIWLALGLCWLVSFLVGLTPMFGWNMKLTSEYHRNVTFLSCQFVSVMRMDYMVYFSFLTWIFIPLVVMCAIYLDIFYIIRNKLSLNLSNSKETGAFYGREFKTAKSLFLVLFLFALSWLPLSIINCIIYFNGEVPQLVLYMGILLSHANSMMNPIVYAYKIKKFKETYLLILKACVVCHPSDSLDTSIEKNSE
Protocol: Natl. Acad. Sci. […] Natl. Acad. Sci. U.S.A. 89:7432-7436, 1992) was performed as described at 4° C. (Olah et al., Mol. Pharmacol. 45:978-982, 1994). The assay medium consisted of a buffer containing 10 mM Mg^2+, 50 mM Tris, 3 units/mL adenosine deaminase, and 1 mM EDTA, at pH 8.0 (4° C.). […] Incubations were terminated by rapid filtration over Whatman GF/B filters, using a Brandell cell harvester (Brandell, Gaithersburg, MD). The tubes were rinsed three times with 3 mL buffer each. At least five different concentrations of competitor, spanning 3 orders of magnitude adjusted appropriately for the IC50 of each compound, were used. IC50 values, calculated with the nonlinear regression method implemented in the InPlot program (Graph-PAD, San Diego, Calif.), were converted to apparent Ki values using the Cheng-Prusoff equation (Cheng et al., Biochem.

[2] = biological target: T2, A1 receptors (Rattus norvegicus, UniProt P25099); test: Radioligand binding, [3H]R-PIA, rat cerebral cortex membranes
T2 construct: A1 receptors from rat cerebral cortex membranes; from tissue; host or cells: rat cerebral cortex membranes
T2 sequence (P25099 1-326): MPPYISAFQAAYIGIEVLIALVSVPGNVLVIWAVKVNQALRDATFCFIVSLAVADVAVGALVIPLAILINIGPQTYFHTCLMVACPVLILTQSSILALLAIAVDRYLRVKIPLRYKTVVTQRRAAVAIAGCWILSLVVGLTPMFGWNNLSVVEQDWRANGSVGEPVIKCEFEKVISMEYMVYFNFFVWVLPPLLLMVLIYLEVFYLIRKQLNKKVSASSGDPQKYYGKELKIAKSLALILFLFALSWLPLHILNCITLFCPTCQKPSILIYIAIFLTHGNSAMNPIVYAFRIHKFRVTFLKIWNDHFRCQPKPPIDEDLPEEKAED
Protocol: Radioligand binding studies. Binding of [^3H]R-N^6-phenylisopropyladenosine ([^3H]R-PIA) to A1 receptors from rat cerebral cortex membranes and of [^3H]-2-[4-[(2-carboxyethyl)phenyl]ethylamino]-5′-N-ethylcarbamoyladenosine ([^3H]CGS 21680) to A2A receptors from rat striatal membranes was performed as described previously (Schwabe et al., Naunyn Schmiedeberg Arch. Pharmacol. 313:179-187, 1980; Jarvis et al., J. Pharmacol. Exp. Ther. 251:888-893, 1989) Adenosine deaminase (3 units/mL) was present during the preparation of the brain membranes, in a pre-incubation of 30 min at 30° C., and during the incubation with the radioligands. Nonspecific binding was determined in the presence of 10 μM (A1 receptors) or 20 μM (A2A receptors)2-chloroadenosine.
All non-radioactive compounds were initially dissolved in DMSO, and diluted with buffer to the final concentration, where the amount of DMSO never exceeded 1%. Incubations were terminated by rapid filtration over Whatman GF/B filters, using a Brandell cell harvester (Brandell, Gaithersburg, MD). The tubes were rinsed three times with 3 mL buffer each.
At least five different concentrations of competitor, spanning 3 orders of magnitude adjusted appropriately for the IC50 of each compound, were used.

[3] = system: HCE (human ciliary epithelial) cell line, NPE cells; conditions: read-out: EC50 for isoosmotic shrinkage of cultured human NPE cells; cited from earlier work
[4] = system: bovine PE cells, Cl− currents; test: Ruptured-patch whole-cell recording of PE cells; format: cell-based
Description: Harvested cultured PE cells were resuspended and permitted to settle and attach to glass coverslips, which were then transferred to a perfusion chamber (Carré et al., supra., 1997). Solutions were designed to isolate any Cl^- current activated by ATP. […] (Am. J. Physiol., 261:[…]-[…], 1991), as previously described (Carré et al., supra., 1997). Cells were patched while still round, usually one day after dissociation. […] Data were acquired at 1 kHz using Axopatch-1B electronics and associated headstage (Axon Instruments, Foster City, Calif.) and filtered at 500 Hz with a Bessel filter. The micropipettes were double-pulled from Corning No. 7052 glass, coated with Sylgard and fire polished. The membrane potential was held without series-resistance compensation at 0 mV and stepped to voltages over the range from -100 to +100 mV in 20 mV increments for 200 msec periods. The mean current measured between 150-200 msec was used to obtain the patch-clamp data used here. The data presented in FIG. 2 was obtained at -60 mV [the approximate membrane potential (Green et al., Invest. Ophthalmol. Vis. Sci., 26:371-381, 1985)] to facilitate comparison with the volumetric data.

[5] = system: bovine pigmented ciliary epithelial (PE) cells; test: Cell volume (shrinkage) of PE cells in isoosmotic suspension, Coulter Counter; format: cell-based
[6] = biological target: human A2 receptors; conditions: read-out: Ki for binding to human A2 receptors; cited from earlier work
[7] = system: HCE (human ciliary epithelial) cell line, NPE cells; test: Cell volume (shrinkage) of NPE cells in isosmotic solution, Coulter Counter, 5 μM gramicidin; format: cell-based; conditions: 300 nM MRS-1097, 100 nM MRS-1191, 100 nM MRS-1523, 10 μM adenosine
Protocol: A 0.5-ml aliquot of the HCE cell suspension in DMEM was added to 20 ml of each test solution, which contained (in mM): 110.0 NaCl, 15.0HEPES [4-(2-hydroxyethyl)-1-piperazineethanesulfonic acid], 2.5 CaCl2, 1.2 MgCl2, 4.7 KCl, 1.2 KH2PO4, 30.0 NaHCO3, and 10.0 glucose, at a pH of 7.4 and osmolality of 298-305 mOsm. Parallel aliquots of cells were studied on the same day. One aliquot usually served as a control, and the others were exposed to different experimental conditions at the time of suspension. The same amount of solvent vehicle (dimethylformamide, DMSO or ethanol) was always added to the control and experimental aliquots. The sequence of studying the suspensions was varied to preclude systematic time-dependent artifacts (Civan et al., Exp. Eye Res. 54:181-191, 1992).
Cell volumes of isosmotic suspensions were measured with a Coulter Counter (model ZBI-Channelyzer II), using a 100-μm aperture (Civan et al., supra., 1994). As previously described (Wax et al., supra., 1993), the cell volume (vC) of the suspension was taken as the peak of the distribution function. Cell shrinkage was fit as a function of time (t) to a monoexponential function:
vC=v∞+(v0−v∞)−[e^−(t−t^0^)/τ] {1}
where v∞ is the steady-state cell volume, v0 is the cell volume at the first point (t0) of the time course to be fit, and τ is the time constant of the shrinkage. For purposes of data reduction, the data were normalized to the first time point, taken to be 100% isotonic volume. Fits were obtained by nonlinear least-squares regression analysis, permitting both v∞and τ to be variables.
In order to differentiate among these receptors, the experiments were repeated in the present study using a series of agonists and antagonists selective for these receptors. As we wished to identify the effects of these receptors specifically on Cl^− channels, 5 μM gramicidin D was included in all solutions to eliminate any potential contribution from K^+ channels. This ionophore readily partitions into plasma membranes to form a cation-selective pore, and is widely used for studying volume regulation (Hoffmann et al., in Interaction of Cell Volume and Cell Function, Lang et al., eds., Springer, Heidelberg, Germany, pp. 188-248, (ACEP Series 14), 1993)). Under these conditions, release of cell Cl^− becomes the rate-limiting factor in both hypo-(Civan et al., Exp. Eye Res. 54:181-191, 1992) and isoosmotic cell shrinkage (Carre et al., supra., 1997).

[8] = biological target: T1, human A3 receptor; conditions: read-out: Ki for binding to human A3 receptors; cited from earlier work
[9] = biological target: T1, human A3 receptor; test: Adenylate cyclase assay, CHO cell membranes, forskolin stimulated; format: biochemical
[10] = Water solubility; format: physicochemical; conditions: room temperature
Protocol: 100 μL of de-ionized water was saturated with 5 mg 11 with heating. After cooling to room temperature and the disappearance of turbidity, 50 μL of the clear supernatant was withdrawn and lyophilized to give 1.1 mg of 11.

Compound: CCOC(=O)c1c(CC)c(C(=O)SCC)c(CC)[n+](C)c1C1CCCC1 [Compound 23, 1-Methyl-2,4-diethyl-3-(ethylsulfanylcarbonyl)-5-ethyloxycarbonyl-6-cyclopentylpyridinium Iodide]
- Ki [1]: 695 nM
- Ki [2]: 11500 nM

Compound: Nc1ncnc2c1ncn2[C@@H]1O[C@H](CO)[C@@H](O)[C@H]1O [adenosine]
- EC50 [3]: 3000 to 10000 nM

Compound: Nc1ncnc2c1ncn2[C@@H]1O[C@H](COP(=O)(O)OP(=O)(O)OP(=O)(O)O)[C@@H](O)[C@H]1O [ATP]
- effect of ATP on whole-cell current ([4]; 1 mM ATP, holding potential −60 mV, cultured bovine PE cell): reversible and reproducible increases in inward current
- trials with current activated by ATP ([4]; cultured PE cells): 10/17
- trials with current activated by ATP ([4]; fresh bovine PE cells): 3/9
- steady-state cell volume (v∞) ([5]; 3 μM ATP alone, FIG. 8B): 98.0±0.4%
- time constant of the shrinkage (τ) ([5]; 3 μM ATP alone, FIG. 8B): 10.8 ± 4.9 min
- steady-state cell volume (v∞) ([5]; 10 μM ATP alone, FIG. 8A): 94.3±0.3%
- time constant of the shrinkage (τ) ([5]; 10 μM ATP alone, FIG. 8A): 2.8 ± 0.7 min
- steady-state cell volume (v∞) ([5]; 10 μM ATP alone, FIG. 8B): 97.2±0.3%
- time constant of the shrinkage (τ) ([5]; 10 μM ATP alone, FIG. 8B): 1.6 ± 1.0 min
- steady-state cell volume (v∞) ([5]; 10 μM ATP alone, FIG. 10A): 97.2±0.3%
- time constant of the shrinkage (τ) ([5]; 10 μM ATP alone, FIG. 10A): 1.6 ± 1.0 min
- steady-state cell volume (v∞) ([5]; 100 μM ATP alone, FIG. 8A): 94.3±0.3%
- time constant of the shrinkage (τ) ([5]; 100 μM ATP alone, FIG. 8A): 2.8 ± 0.7 min
- steady-state cell volume (v∞) ([5]; 100 μM ATP alone, FIG. 13A): 94.9±1.0%
- time constant of the shrinkage (τ) ([5]; 100 μM ATP alone, FIG. 13A): 45.2 ± 14.0 min
- steady-state cell volume (v∞) ([5]; 100 μM ATP alone, FIG. 13B): 87.5±1.8%
- time constant of the shrinkage (τ) ([5]; 100 μM ATP alone, FIG. 13B): 45.2 ± 14.0 min
- steady-state cell volume (v∞) ([5]; 100 μM ATP alone, FIG. 13C): 93.9±1.7%
- time constant of the shrinkage (τ) ([5]; 100 μM ATP alone, FIG. 13C): 34.8 ± 13.8 min
- steady-state cell volume (v∞) ([5]; 100 μM ATP alone, FIG. 14B): 96.8±0.5%
- time constant of the shrinkage (τ) ([5]; 100 μM ATP alone, FIG. 14B): 8.3 ± 3.7 min
- steady-state cell volume (v∞) ([5]; 10 mM ATP alone, FIG. 10A): 97.7±0.2%
- time constant of the shrinkage (τ) ([5]; 10 mM ATP alone, FIG. 10A): 2.2 ± 0.8 min
- share of volumetric studies in which ATP alone produced shrinkage ([5]; ATP alone): approximately 15%
- EC50 ([5]; in the presence of tamoxifen, read-out: ATP concentration eliciting approximately half-maximal response): ~3000 nM

Compound: CCCOC(=O)c1c(-c2ccccc2)nc(CC)c(C(=O)SCC)c1CCC [MRS-1523]
- Ki [6]: 2050 nM
- effect of A3 antagonist on adenosine-stimulated isotonic shrinkage [7]: prevented the characteristic shrinkage
- effect of A3 antagonist on adenosine-stimulated isotonic shrinkage ([7]; listed as MRS 1523): eliminated the actions of adenosine; also recorded: blocked the shrinkage
- Ki [8]: 19 nM

Compound: CCOC(=O)c1c(CC)c(C(=O)SCC)c(CC)[n+](C)c1-c1ccccc1.[I-] [Compound 11, 1-Methyl-2,4-Diethyl-3-(ethylsulfanylcarbonyl)-5-ethyloxycarbonyl-6-phenylpyridinium Iodide]
- Ki [1]: 219 nM
- KB relative to the Ki value in binding to human A3 receptors [9]: approximately 1.8 times
- shift of the IB-MECA concentration response curve to the right ([9]; 10 μM of 11): 26 fold
- Kb ([9]; read-out: KB value (Schild analysis)): 399 nM
- solubility ([10]; de-ionized water, water, thermodynamic from solid): 42.8 mM
- water solubility ([10]; listed as MRS 1649): 43 mM

Compound: O=C(O)c1cc([N+](=O)[O-])ccc1NCCCc1ccccc1 [NPPB, 5-nitro-2-(3-phenylpropylamino)-benzoate]
- reduction of the ATP-enhanced currents ([4]; 100 μM NPPB, −60 mV): 56±11%
- effect of NPPB on ATP-stimulated current ([4]; FIG. 9B): partially inhibited
- effect of Cl− channel blocker on ATP, tamoxifen-activated shrinkage ([5]; DIDS 500 μM, NPPB 100 μM): inhibited the volume reduction; also recorded: abolished the synergistic shrinkage

Compound: CCOC(=O)C1=C(C2CCCC2)N(C)C(CC)=C(C(=O)SCC)C1CC (stereo not shown) [Compound 25, 1-Methyl-2,4-diethyl-3-(ethylsulfanylcarbonyl)-5-ethyloxycarbonyl-6-cyclopentyl-1,4-dihydropyridine]
- Ki [1]: 6400 ± 780 nM
- displacement at rat A1 receptors ([2]; at 100 μM): 34 ±1%
